Reference: ChEMBL document CHEMBL3046330, “Synthesis and biological activity of hydrazidehydrazones and their corresponding 3-acetyl-2,5-disubstituted-2,3-dihydro-1,3,4-oxadiazoles” (Med Chem Res, 2012)
Converted amounts (≈) assume the structure as drawn. The source made the active and inactive calls. No cut-off for these calls is given here.

Key:
HL-60 [1] = assay: Antioxidant activity in PMA-stimulated Homo sapiens (human) HL60 cells assessed as inhibition of intracellular ROS generation incubated for 30 min prior to PMA stimulation measured after 30 min by DCFH-DA assay; assay type: functional, cell-based
Candida albicans [2] = assay: Antifungal activity against Candida albicans clinical isolate at 2000 ug/ml by agar diffusion method; assay type: functional; conditions: read-out: IZ
RAW264.7 = assay: Cytotoxicity against Mus musculus (mouse) RAW264.7 cells up to 25 ug/ml; assay type: cell-based
HL-60 [3] = assay: Antioxidant activity in PMA-stimulated Homo sapiens (human) HL60 cells assessed as inhibition of intracellular ROS generation up to 25 ug/ml incubated for 30 min prior to PMA stimulation measured after 30 min by DCFH-DA assay relative to vehicle-treated control; assay type: functional, cell-based
Candida parapsilosis = assay: Antifungal activity against Candida parapsilosis NRRL Y-12696 after 24 hr by NCCLS broth microdilution method; assay type: functional; conditions: Lodderomyces parapsilosis, NRRL Y-12696, 24 h
HL-60 [4] = assay: Cytotoxicity against Homo sapiens (human) HL60 cells up to 25 ug/ml; assay type: cell-based
[5] = Cytotoxicity against Sus scrofa (pig) LLC-PK11 cells assessed as cell viability up to 25 ug/ml after 48 hr by neutral red assay; assay type: cell-based; conditions: llc-pk11, 48 h
SK-MEL = assay: Cytotoxicity against Homo sapiens (human) SK-MEL cells assessed as cell viability up to 25 ug/ml after 48 hr by neutral red assay; assay type: functional, cell-based
Vero = assay: Cytotoxicity against Chlorocebus aethiops (African green monkey) Vero cells assessed as cell viability up to 25 ug/ml after 48 hr by neutral red assay; assay type: cell-based; conditions: chlorocebus sabaeus
Candida albicans [6] = assay: Antifungal activity against Candida albicans NRRL Y-12983 after 24 hr by NCCLS broth microdilution method; assay type: functional; conditions: NRRL Y-12983, 24 h
Pichia kudriavzevii = assay: Antifungal activity against Pichia kudriavzevii NRRL Y-7179 after 24 hr by NCCLS broth microdilution method; assay type: functional; conditions: NRRL Y-7179, 24 h
Nakaseomyces glabratus = assay: Antifungal activity against Candida glabrata clinical isolate after 24 hr by NCCLS broth microdilution method; assay type: functional
BT-549 = assay: Cytotoxicity against Homo sapiens (human) BT549 cells assessed as cell viability up to 25 ug/ml after 48 hr by neutral red assay; assay type: functional, cell-based
SK-OV-3 = assay: Cytotoxicity against Homo sapiens (human) SKOV3 cells assessed as cell viability up to 25 ug/ml after 48 hr by neutral red assay; assay type: functional, cell-based
Cyberlindnera jadinii = assay: Antifungal activity against Cyberlindnera jadinii NRRL Y-900 after 24 hr by NCCLS broth microdilution method; assay type: functional; conditions: Williopsis jadinii, NRRL Y-900, 24 h
Candida albicans [7] = assay: Antifungal activity against Candida albicans ATCC 90028 after 24 hr by NCCLS broth microdilution method; assay type: functional; conditions: ATCC 90028, 24 h
[8] = Inhibition of PMA-induced NFkappaB activity in Homo sapiens (human) SW1353 cells incubated for 30 min followed by PMA induction for 8 hr by luciferase reporter gene assay; assay type: cell-based
[9] = target: T1, Nitric oxide synthase, inducible (Mus musculus) (UniProt P29477); assay: Inhibition of iNOS in Mus musculus (mouse) RAW264.7 cells assessed as inhibition of LPS-induced nitrite production up to 25 ug/ml incubated for 30 min prior to LPS challenge measured after 24 hr by Griess assay relative to vehicle-treated control; assay type: cell-based
T1 sequence (whole entry): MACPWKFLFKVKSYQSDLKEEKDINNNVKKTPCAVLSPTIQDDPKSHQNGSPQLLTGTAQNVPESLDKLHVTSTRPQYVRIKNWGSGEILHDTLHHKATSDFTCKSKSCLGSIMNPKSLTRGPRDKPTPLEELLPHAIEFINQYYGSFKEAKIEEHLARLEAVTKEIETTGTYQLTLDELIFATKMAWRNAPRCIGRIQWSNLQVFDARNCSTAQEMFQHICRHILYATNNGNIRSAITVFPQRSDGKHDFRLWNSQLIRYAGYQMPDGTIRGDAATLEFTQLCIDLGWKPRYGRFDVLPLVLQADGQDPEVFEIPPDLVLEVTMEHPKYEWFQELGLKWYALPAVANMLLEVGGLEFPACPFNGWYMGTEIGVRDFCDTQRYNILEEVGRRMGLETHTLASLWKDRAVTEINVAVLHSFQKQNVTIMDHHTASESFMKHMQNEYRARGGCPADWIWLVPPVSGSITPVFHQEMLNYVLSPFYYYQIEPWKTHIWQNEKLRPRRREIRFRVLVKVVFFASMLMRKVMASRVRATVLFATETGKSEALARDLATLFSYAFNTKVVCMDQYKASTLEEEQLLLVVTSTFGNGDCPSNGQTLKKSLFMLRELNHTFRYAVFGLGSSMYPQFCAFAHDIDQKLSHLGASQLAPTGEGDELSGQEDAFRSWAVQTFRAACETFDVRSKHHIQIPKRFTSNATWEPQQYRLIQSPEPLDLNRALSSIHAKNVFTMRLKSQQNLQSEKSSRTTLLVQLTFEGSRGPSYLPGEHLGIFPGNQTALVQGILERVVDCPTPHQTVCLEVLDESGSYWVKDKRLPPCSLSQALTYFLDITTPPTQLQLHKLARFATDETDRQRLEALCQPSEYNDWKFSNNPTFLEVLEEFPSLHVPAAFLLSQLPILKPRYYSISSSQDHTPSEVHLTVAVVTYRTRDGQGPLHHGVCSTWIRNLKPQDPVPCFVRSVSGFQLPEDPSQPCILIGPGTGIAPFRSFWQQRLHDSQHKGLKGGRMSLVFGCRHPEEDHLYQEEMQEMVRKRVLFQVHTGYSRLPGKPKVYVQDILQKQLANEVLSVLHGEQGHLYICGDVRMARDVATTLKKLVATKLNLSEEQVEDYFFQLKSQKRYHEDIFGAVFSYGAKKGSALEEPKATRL

Candida tropicalis [10] = assay: Antifungal activity against Candida tropicalis NRRL Y-12968 at 2000 ug/ml by agar diffusion method; assay type: functional; conditions: read-out: IZ
KB = assay: Cytotoxicity against Homo sapiens (human) KB cells assessed as cell viability up to 25 ug/ml after 48 hr by neutral red assay; assay type: functional, cell-based
HL-60 [11] = assay: Cytotoxicity against Homo sapiens (human) HL60 cells; assay type: cell-based
Transcription factor Sp1 = Transcription factor Sp1 (Homo sapiens, UniProt P08047); assay: Inhibition of Sp1 (unknown origin) up to 25 ug/ml by luciferase reporter gene assay
Chain of Transcription factor Sp1 (P08047 whole entry): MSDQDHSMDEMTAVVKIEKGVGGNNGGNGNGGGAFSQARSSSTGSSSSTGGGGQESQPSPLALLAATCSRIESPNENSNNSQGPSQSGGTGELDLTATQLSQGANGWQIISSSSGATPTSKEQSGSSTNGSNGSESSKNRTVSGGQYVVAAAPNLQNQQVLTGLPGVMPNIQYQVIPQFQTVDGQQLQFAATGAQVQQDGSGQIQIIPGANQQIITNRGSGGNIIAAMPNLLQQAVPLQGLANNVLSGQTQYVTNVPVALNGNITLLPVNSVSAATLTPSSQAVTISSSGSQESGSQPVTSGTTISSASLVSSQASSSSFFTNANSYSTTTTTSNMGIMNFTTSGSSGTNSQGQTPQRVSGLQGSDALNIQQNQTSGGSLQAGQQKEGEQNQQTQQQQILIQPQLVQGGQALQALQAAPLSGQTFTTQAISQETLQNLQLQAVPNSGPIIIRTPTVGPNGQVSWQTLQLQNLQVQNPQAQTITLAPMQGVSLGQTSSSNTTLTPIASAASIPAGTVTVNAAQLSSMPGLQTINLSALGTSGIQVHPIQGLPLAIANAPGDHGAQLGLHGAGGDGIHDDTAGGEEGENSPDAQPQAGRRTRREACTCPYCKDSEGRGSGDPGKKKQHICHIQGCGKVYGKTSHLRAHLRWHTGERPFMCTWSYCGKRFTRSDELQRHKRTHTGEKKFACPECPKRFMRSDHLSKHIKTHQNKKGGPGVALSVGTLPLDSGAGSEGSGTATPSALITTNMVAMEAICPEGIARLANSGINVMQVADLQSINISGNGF

SW1353 = assay: Inhibition of PMA-induced NFkappaB activity in Homo sapiens (human) SW1353 cells up to 25 ug/ml incubated for 30 min followed by PMA induction for 8 hr by luciferase reporter gene assay; assay type: cell-based
Candida tropicalis [12] = assay: Antifungal activity against Candida tropicalis NRRL Y-12968 after 24 hr by NCCLS broth microdilution method; assay type: functional; conditions: NRRL Y-12968, 24 h
Candida albicans [13] = assay: Antifungal activity against Candida albicans clinical isolate after 24 hr by NCCLS broth microdilution method; assay type: functional
Botrytis cinerea = assay: Antifungal activity against Botryotinia fuckeliana at 0.3 to 30 uM after 48 to 72 hr by broth microdilution method; assay type: functional, organism-based
[14] = target: T2, Nitric oxide synthase, inducible (Mus musculus, UniProt P29477); assay: Inhibition of iNOS in Mus musculus (mouse) RAW264.7 cells assessed as inhibition of LPS-induced nitrite production incubated for 30 min prior to LPS challenge measured after 24 hr by Griess assay; assay type: cell-based
T2 sequence (P29477 whole entry): T1 sequence (whole entry)

Colletotrichum fragariae = assay: Antifungal activity against Colletotrichum fragariae at 0.3 to 30 uM after 48 to 72 hr by broth microdilution method; assay type: functional, organism-based

Row | SMILES | IC50 (HL-60 [1]) [µg/mL] | zone of inhibition at 2000 µg/mL (Candida albicans [2]) [mm] | Activity (RAW264.7) | inhibition (HL-60 [3]) | MIC (Candida parapsilosis) [µg/mL] | Activity [5] | Activity (SK-MEL) | Activity (Vero) | MIC (Candida albicans [6]) [µg/mL] | MIC (Pichia kudriavzevii) [µg/mL] | MIC (Nakaseomyces glabratus) [µg/mL] | Activity (BT-549) | Activity (SK-OV-3) | MIC (Cyberlindnera jadinii) [µg/mL] | MIC (Candida albicans [7]) [µg/mL] | inhibition [9] | zone of inhibition at 2000 µg/mL (Candida tropicalis [10]) [mm] | Activity (KB) | inhibition (INH) (Transcription factor Sp1) | MIC (Candida tropicalis [12]) [µg/mL] | further results
1 | Cc1c(C)c2c(c(C)c1O)CCC(C)(C(=O)O)O2 (configuration not stated) [TROLOX] | 0.3 (≈ 1.2 µM) |  |  |  |  |  |  |  |  |  |  |  |  |  |  |  |  |  |  |  | 
2 | O=C(N/N=C/c1ccccc1)c1ccc(F)cc1 |  | 9 | Non-toxic | inactive | 250 (≈ 1030 µM) | Not Active | inactive | Not Active | 500 (≈ 2060 µM) | 500 (≈ 2060 µM) | 250 (≈ 1030 µM) | inactive | inactive | 500 (≈ 2060 µM) | 500 (≈ 2060 µM) | inactive | 9 | inactive |  |  | Activity (HL-60 [4]): Non-toxic; IC50 [8]: 2.8 µg/mL (≈ 11.6 µM)
3 | CN(C)c1ccc(/C=N/NC(=O)c2ccc(F)cc2)cc1 | 23 (≈ 80.6 µM) | 9 | Non-toxic |  | 500 (≈ 1750 µM) | Not Active | inactive | Not Active | 500 (≈ 1750 µM) | 500 (≈ 1750 µM) | 125 (≈ 438 µM) | inactive | inactive | 500 (≈ 1750 µM) | 500 (≈ 1750 µM) | inactive | 9 | inactive | Not Active | 500 (≈ 1750 µM) | IC50 (HL-60 [11]): > 31.2 µg/mL; inhibition (SW1353): inactive
4 | CC(=O)N1N=C(c2ccc(F)cc2)OC1c1ccco1 (configuration not stated) | 5.2 (≈ 19 µM) | 9 | Non-toxic |  | 1000 (≈ 3650 µM) | Not Active | inactive | Not Active | 500 (≈ 1820 µM) | 500 (≈ 1820 µM) | 500 (≈ 1820 µM) | inactive | inactive | 500 (≈ 1820 µM) | 1000 (≈ 3650 µM) | inactive | 9 | inactive | Not Active | 500 (≈ 1820 µM) | MIC (Candida albicans [13]): 500 µg/mL (≈ 1820 µM); IC50 (HL-60 [11]): 24 µg/mL (≈ 87.5 µM); inhibition (SW1353): inactive
5 | CC(=O)N1N=C(c2ccc(F)cc2)OC1c1ccc(O)cc1 (configuration not stated) |  | 9 | Non-toxic | inactive | 250 (≈ 833 µM) | Not Active | inactive | Not Active | 500 (≈ 1670 µM) | 250 (≈ 833 µM) | 500 (≈ 1670 µM) | inactive | inactive | 125 (≈ 416 µM) | 500 (≈ 1670 µM) |  | 9 | inactive | Not Active | 250 (≈ 833 µM) | Activity (HL-60 [4]): Non-toxic; Activity (Botrytis cinerea): inactive; MIC (Candida albicans [13]): 250 µg/mL (≈ 833 µM); IC50 [8]: 5.5 µg/mL (≈ 18.3 µM); IC50 [14]: 999 nM; Activity (Colletotrichum fragariae): inactive
